Test results from PubChem BioAssay AID743333 (Broad Institute, 2014).
Activity calls are given as the source filed them.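 Rule for the calls: active = signal falls with dose and an IC50 can be fitted at or below twice the top valid tested dose; inconclusive = flat fit showing 30 to 70% loss, or poor fit; inactive = activity in the rising direction, plus the rest.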

Test system: not listed separately
Experiment: A549 cell cytotoxicity, dose response, cytotoxicity control, plate reader, dry powder, set 8 (AID 743333)
Settings: A549 viability, CellTiter-Glo ATP luminescence, 72 h; at 15 µM (top of the series)

**Q.** For `Cc1cnc(NC(=O)c2cc(S(=O)(=O)N(C)C)ccc2N2CCCC2)s1`, which activity change, negative = cytotoxicity is on record?
**A.** Its activity change, negative = cytotoxicity is -12% (inactive).

**Q.** For `Cc1csc(NC(=O)c2cc(S(=O)(=O)N(C)C)ccc2N2CCCC2)n1`, which activity change, negative = cytotoxicity is on record?
**A.** Its activity change, negative = cytotoxicity is -6.7% (inactive).

**Q.** With `COc1ccc2nc(NC(=O)c3cc(S(=O)(=O)N(C)C)ccc3N3CCCC3)sc2c1` as the compound, how does the activity change, negative = cytotoxicity read?
**A.** The activity change, negative = cytotoxicity was -4.45% (inactive).

**Q.** For `Cc1cnc(NC(=O)c2cc(S(=O)(=O)N(C)C)ccc2C2CCCC2)s1`, which activity change, negative = cytotoxicity is on record?
**A.** The activity change, negative = cytotoxicity was 0.274% (inactive).

**Q.** Which activity change, negative = cytotoxicity does the source give for `Cc1cnc(NC(=O)c2cc(S(=O)(=O)N(C)C)ccc2N2CCC2)s1` here?
**A.** The activity change, negative = cytotoxicity was -8.88% (inactive).

**Q.** Which activity change, negative = cytotoxicity does the source give for `CN(C)S(=O)(=O)c1ccc(N2CCCC2)c(C(=O)Nc2nc3ccccc3s2)c1` here?
**A.** Its activity change, negative = cytotoxicity is -13.7% (inactive).

**Q.** For `Cc1cnc(NC(=O)c2cc(S(=O)(=O)N3CCOCC3)ccc2N2CCCC2)s1`, which activity change, negative = cytotoxicity is on record?
**A.** Its activity change, negative = cytotoxicity is -9.98% (inactive).

**Q.** For `Cc1cnc(NC(=O)c2cc(S(=O)(=O)N3CCCCC3)ccc2N2CCCC2)s1`, which activity change, negative = cytotoxicity is on record?
**A.** Its activity change, negative = cytotoxicity is 9.07% (inactive).

**Q.** For `CN(C)CCCN(Cc1cc2ccccc2[nH]c1=O)C(=O)Nc1ccccc1`, which activity change, negative = cytotoxicity is on record?
**A.** Its activity change, negative = cytotoxicity is 2.4% (inactive).

**Q.** With `Cc1ccc(NC(=O)c2cc(S(=O)(=O)N(C)C)ccc2N2CCCC2)cc1` as the compound, how does the activity change, negative = cytotoxicity read?
**A.** The activity change, negative = cytotoxicity was -13.5% (inactive).

**Q.** Which activity change, negative = cytotoxicity does the source give for `Cc1cnc(NC(=O)c2cc(S(=O)(=O)N(C)C)ccc2N(C)C)s1` here?
**A.** Its activity change, negative = cytotoxicity is -6.64% (inactive).

**Q.** For `CN(C)S(=O)(=O)c1ccc(N2CCCC2)c(C(=O)Nc2nccs2)c1`, which activity change, negative = cytotoxicity is on record?
**A.** The activity change, negative = cytotoxicity was 1.36% (inactive).

**Q.** Which activity change, negative = cytotoxicity does the source give for `COc1cccc2sc(NC(=O)c3cc(S(=O)(=O)N(C)C)ccc3N3CCCC3)nc12` here?
**A.** Its activity change, negative = cytotoxicity is -2.59% (inactive).

**Q.** Which activity change, negative = cytotoxicity does the source give for `COc1ccc2sc(NC(=O)c3cc(S(=O)(=O)N(C)C)ccc3N3CCCC3)nc2c1` here?
**A.** The activity change, negative = cytotoxicity was 8.3% (inactive).

**Q.** Which activity change, negative = cytotoxicity does the source give for `Cc1cnc(NC(=O)c2cc(S(=O)(=O)N3CCCC3)ccc2N2CCCC2)s1` here?
**A.** Its activity change, negative = cytotoxicity is 0.402% (inactive).

**Q.** Which activity change, negative = cytotoxicity does the source give for `CN(C)S(=O)(=O)c1ccc(N2CCCC2)c(C(=O)Nc2ccccc2)c1` here?
**A.** Its activity change, negative = cytotoxicity is -5.56% (inactive).

**Q.** For `CN(C)CCCN(Cc1cc2ccccc2[nH]c1=O)C(=O)NCc1ccccc1`, which activity change, negative = cytotoxicity is on record?
**A.** The activity change, negative = cytotoxicity was -4.79% (inactive).

**Q.** Which activity change, negative = cytotoxicity does the source give for `CN(C)S(=O)(=O)c1ccc(N2CCCC2)c(C(=O)Nc2cccc(F)c2)c1` here?
**A.** The activity change, negative = cytotoxicity was -8.14% (inactive).

Test system: A549 viability, CellTiter-Glo ATP luminescence, 72 h
Experiment: as above
Settings: not given

**Q.** Which IC50 does the source give for `CCN(CC)c1ccc(S(=O)(=O)N(C)C)cc1C(=O)Nc1ncc(C)s1` here?
**A.** The IC50 was > 30 µM (inactive).
